{"source": "patent US7951232B2", "about": "“Surface coating compositions and methods” (Elevance Renewable Sciences, Inc., priority 2006, dated 2011)", "format_in_all_cases": "cell-based", "key": {"[1]": {"test_system": "Candida albicans, ATCC 10231", "test": "Time-Kill Procedure (ASTM), rate of kill", "experimental": "(§1) The rate of kill for these organisms upon exposure to 9-decenoic acid was determined using the American Society for Testing and Materials (ASTM) procedure entitled “Standard Test Method for the Assessment of Microbiocidal Activity of Test Materials Using a Time-Kill Procedure”, October 1998. This procedure incorporates the recommendations described in the “Manual of Clinical Microbiology,”5th ed., edited by A. B. Balows et al., ASM, Washington, and is directed by the Federal Register, June 1994.\n(§2) Stock cultures were transferred into TSB and incubated for 18-24 hours at 37±2° C. A second transfer was made onto TSA plates and were incubated for 18-24 hours at 37±2° C. The plates were removed from incubation and the bacterial growth washed from the agar surface using Butterfield's Phosphate Buffered Dilution Water (PBDW). The bacterial suspension was adjusted to contain approximately 10^8 Colony Forming Units (CFU)/ml with PBDW using spectrophometric methods extant in the laboratory.\n(§3) The concentrated 9-decenoic acid was diluted 1:40 in filter sterilized isopropanol to yield a 2.5% stock solution. Subsequent dilutions to the 9-decenoic acid stock solutions were made with sterile Deionized Water (DI) to achieve concentrations of 0.1%, 0.05%, 0.01%, and 0.001%. The pH was determined for each dilution; pH values ranged from 4.4-4.1. Additionally, the 9-decenoic acid stock solution was adjusted to pH 7 with 1 N NaOH and serially diluted with sterile DI to achieve concentrations of 1.0%, 0.75% and 0.5%.\n(§4) Compliant with the ASTM procedure cited, for each challenge microorganism a 9.9 ml aliquot of the prepared 9-decenoic acid suspension was added to a sterile tube. A 0.1 ml aliquot of the standardized inoculum was added to the 9-decenoic acid solution representing the start of the test exposure. The inoculated 9-decenoic acid solution was immediately mixed thoroughly. The inoculated suspension was held at room temperature for 0.5, 2, 5, 7 and 10 minute exposure times for tests run at ˜pH 4. The pH 7 tests were held at room temperature for 0.5 and 2 minutes.\n(§5) At each exposure sample time, a 1.0 ml aliquot of the inoculated 9-decenoic acid suspension was transferred to 9.0 ml of D/E Neutralizing Broth. Additional ten-fold serial dilutions were made in PBDW and plated in duplicate on TSA. All plates were incubated for 48 hours at 37±2° C. and visually examined for growth. The plates are enumerated, recorded and log kill determined for each time point.\n(§6) The following study controls were conducted: culture purity, neutralizer sterility, initial suspension population, test population, neutralization verification and a negative control using isopropanol. Culture purity was verified by performing a streak plate for isolated colonies on the each culture used. All cultures were determined to be pure based on consistent colony morphology typical for the test organism. The neutralizer sterility was confirmed by no growth in an incubated sample.\n(§7) The population of the initial and test culture were determined by serial dilution, plating and enumerating after incubation. The initial suspension were determined to be ≧10^4 CFU/ml. The test culture population was used for calculation of the log reduction achieved at each time point.\n(§8) Neutralization effectiveness was verified by a filtration test. For each organism, four tubes were prepared with 9 ml D/E Neutralizing Broth and fewer than 100 CFU/ml of the organism. A 1.0 ml aliquot of prepared 9-decenoic acid was added to each tube. Immediately, the entire contents of 2 tubes were filtered through a filtration apparatus and rinsed with sterile diluent. The remaining 2 tubes were held at room temperature for 30 minutes and then the entire contents were filtered using the same procedure. The filters were aseptically transferred to TSA plates and incubated for 48 hours at 37±2° C. and visually examined for growth.\n(§9) This control was inoculated, subcultured and incubated as in the test procedure."}, "[2]": {"test_system": "Escherichia coli 0157:H7, ATCC 43895", "test": "Time-Kill Procedure (ASTM), rate of kill", "experimental": "as §1, §2, §3, §4, §5, §6, §7, §8, §9"}, "[3]": {"test_system": "Cladosporium cladosporiodes ATCC 16022", "test": "Dry film preservative test, growth on PDA agar surface", "experimental": "The efficacy of 9-decenoic acid and the methyl ester of 9-decenoic acid as a dry film preservative was determined through the incubation of Trichoderma virens ATCC 9645, Cladosporium cladosporiodes ATCC 16022 and Aureobasidium pullulans ATCC 12536 in the presence of varying concentrations of 9-decenoic acid or the methyl ester of 9-decenoic acid on an agar surface.\nFungal spores were hydrated overnight in 0.1% Tween 80 and then plated on Potato Dextrose Agar (PDA) and incubated at 25-30° C. for 6 days. The spores were washed from the surface with 5 mls of 0.1% Tween 80 and enumerated.\nPDA plates with prepared according to the manufactures instructions through sterilization. The agar was tempered to approximately 50° C. and filter sterilized 9-decenoic acid was added to achieve concentrations of 0.1, 0.5 and 1.0% in the agar. Additionally, one concentration of the methyl ester of 9-decenoic acid (0.5%) was also prepared. The agar was thoroughly mixed and poured into sterile petri plates and allowed to solidify.\nThe agar plates were inoculated with the spore solution to achieve 10^2 spores/plate. The plates were incubated at 25-30° C. in Ziploc bags with a wet paper towel to keep the moisture level high. The plates were examined for growth after 4, 7, 16, 24 and 31 days. The percent coverage of growth on the agar surface was recorded at each sample point."}, "[4]": {"conditions": "0.01%, pH 4.4, exposure 0.5 minutes"}, "[5]": {"conditions": "0.01%, pH 4.4, exposure 2 minutes"}, "[6]": {"conditions": "0.01%, pH 4.4, exposure 5 minutes"}, "[7]": {"conditions": "0.01%, pH 4.4, exposure 7 minutes"}, "[8]": {"conditions": "0.01%, pH 4.4, exposure 10 minutes"}, "[9]": {"conditions": "0.05%, pH 4.1, exposure 0.5 minutes"}, "[10]": {"conditions": "0.05%, pH 4.1, exposure 2 minutes"}, "[11]": {"conditions": "0.05%, pH 4.1, exposure 5 minutes"}, "[12]": {"conditions": "0.05%, pH 4.1, exposure 7 minutes"}, "[13]": {"conditions": "0.05%, pH 4.1, exposure 10 minutes"}, "[14]": {"conditions": "0.1%, pH 4.1, exposure 0.5 minutes"}, "[15]": {"conditions": "0.1%, pH 4.1, exposure 2 minutes"}, "[16]": {"conditions": "0.1%, pH 4.1, exposure 5 minutes"}, "[17]": {"conditions": "0.1%, pH 4.1, exposure 7 minutes"}, "[18]": {"conditions": "0.1%, pH 4.1, exposure 10 minutes"}}, "data": [{"compound": "C=CCCCCCCCC(=O)O", "note": "[9-decenoic acid]", "values": [{"measurement": "Log reduction of organisms after exposure", "setting": "[1]; [4]", "result": 1.0, "unit": "log"}, {"measurement": "Log reduction of organisms after exposure", "setting": "[1]; [5]", "result": 2.9, "unit": "log"}, {"measurement": "Log reduction of organisms after exposure", "setting": "[1]; [6]", "result": ">6.7", "unit": "log"}, {"measurement": "Log reduction of organisms after exposure", "setting": "[1]; [7]", "result": ">6.7", "unit": "log"}, {"measurement": "Log reduction of organisms after exposure", "setting": "[1]; [8]", "result": ">6.7", "unit": "log"}, {"measurement": "Log reduction of organisms after exposure", "setting": "[1]; [9]", "result": ">6.7", "unit": "log"}, {"measurement": "Log reduction of organisms after exposure", "setting": "[1]; [10]", "result": ">6.7", "unit": "log"}, {"measurement": "Log reduction of organisms after exposure", "setting": "[1]; [11]", "result": ">6.7", "unit": "log"}, {"measurement": "Log reduction of organisms after exposure", "setting": "[1]; [12]", "result": ">6.7", "unit": "log"}, {"measurement": "Log reduction of organisms after exposure", "setting": "[1]; [13]", "result": ">6.7", "unit": "log"}, {"measurement": "Log reduction of organisms after exposure", "setting": "[1]; [14]", "result": ">6.7", "unit": "log"}, {"measurement": "Log reduction of organisms after exposure", "setting": "[1]; [15]", "result": ">6.7", "unit": "log"}, {"measurement": "Log reduction of organisms after exposure", "setting": "[1]; [16]", "result": ">6.7", "unit": "log"}, {"measurement": "Log reduction of organisms after exposure", "setting": "[1]; [17]", "result": ">6.7", "unit": "log"}, {"measurement": "Log reduction of organisms after exposure", "setting": "[1]; [18]", "result": ">6.7", "unit": "log"}, {"measurement": "Log reduction of organisms after exposure", "setting": "[2]; [4]", "result": 1.3, "unit": "log"}, {"measurement": "Log reduction of organisms after exposure", "setting": "[2]; [5]", "result": 1.6, "unit": "log"}, {"measurement": "Log reduction of organisms after exposure", "setting": "[2]; [6]", "result": 2.2, "unit": "log"}, {"measurement": "Log reduction of organisms after exposure", "setting": "[2]; [7]", "result": 1.8, "unit": "log"}, {"measurement": "Log reduction of organisms after exposure", "setting": "[2]; [8]", "result": 2.7, "unit": "log"}, {"measurement": "Log reduction of organisms after exposure", "setting": "[2]; [9]", "result": ">6.2", "unit": "log"}, {"measurement": "Log reduction of organisms after exposure", "setting": "[2]; [10]", "result": ">6.2", "unit": "log"}, {"measurement": "Log reduction of organisms after exposure", "setting": "[2]; [11]", "result": ">6.2", "unit": "log"}, {"measurement": "Log reduction of organisms after exposure", "setting": "[2]; [12]", "result": ">6.2", "unit": "log"}, {"measurement": "Log reduction of organisms after exposure", "setting": "[2]; [13]", "result": ">6.2", "unit": "log"}, {"measurement": "Log reduction of organisms after exposure", "setting": "[2]; [14]", "result": ">6.2", "unit": "log"}, {"measurement": "Log reduction of organisms after exposure", "setting": "[2]; [15]", "result": ">6.2", "unit": "log"}, {"measurement": "Log reduction of organisms after exposure", "setting": "[2]; [16]", "result": ">6.2", "unit": "log"}, {"measurement": "Log reduction of organisms after exposure", "setting": "[2]; [17]", "result": ">6.2", "unit": "log"}, {"measurement": "Log reduction of organisms after exposure", "setting": "[2]; [18]", "result": ">6.2", "unit": "log"}, {"measurement": "Percentage coverage of agar surface", "setting": "[3]; 0.1% in PDA agar, 4 days", "result": 0, "unit": "%"}, {"measurement": "Percentage coverage of agar surface", "setting": "[3]; 0.1% in PDA agar, 7 days", "result": 0, "unit": "%"}, {"measurement": "Percentage coverage of agar surface", "setting": "[3]; 0.1% in PDA agar, 16 days", "result": 0, "unit": "%"}, {"measurement": "Percentage coverage of agar surface", "setting": "[3]; 0.1% in PDA agar, 24 days", "result": 0, "unit": "%"}, {"measurement": "Percentage coverage of agar surface", "setting": "[3]; 0.1% in PDA agar, 31 days", "result": 0, "unit": "%"}, {"measurement": "Percentage coverage of agar surface", "setting": "[3]; 0.5% in PDA agar, 4 days", "result": 0, "unit": "%"}, {"measurement": "Percentage coverage of agar surface", "setting": "[3]; 0.5% in PDA agar, 7 days", "result": 0, "unit": "%"}, {"measurement": "Percentage coverage of agar surface", "setting": "[3]; 0.5% in PDA agar, 16 days", "result": 0, "unit": "%"}, {"measurement": "Percentage coverage of agar surface", "setting": "[3]; 0.5% in PDA agar, 24 days", "result": 0, "unit": "%"}, {"measurement": "Percentage coverage of agar surface", "setting": "[3]; 0.5% in PDA agar, 31 days", "result": 0, "unit": "%"}, {"measurement": "Percentage coverage of agar surface", "setting": "[3]; 1.0% in PDA agar, 4 days", "result": 0, "unit": "%"}, {"measurement": "Percentage coverage of agar surface", "setting": "[3]; 1.0% in PDA agar, 7 days", "result": 0, "unit": "%"}, {"measurement": "Percentage coverage of agar surface", "setting": "[3]; 1.0% in PDA agar, 16 days", "result": 0, "unit": "%"}, {"measurement": "Percentage coverage of agar surface", "setting": "[3]; 1.0% in PDA agar, 24 days", "result": 0, "unit": "%"}, {"measurement": "Percentage coverage of agar surface", "setting": "[3]; 1.0% in PDA agar, 31 days", "result": 0, "unit": "%"}, {"measurement": "effectiveness as dry film preservative", "setting": "[3]; at 0.1% for up to 31 days", "result": "effective"}]}]}
